Legend:
[1] = biological target: cGMP-inhibited 3',5'-cyclic phosphodiesterase 3B (Homo sapiens, UniProt Q13370); experiment: Panlabs assay PDE3B; parameters: compound concentration 10 uM; conditions: at 10 µM
[2] = biological target: High affinity 3',5'-cyclic-AMP phosphodiesterase 7A (Homo sapiens) (UniProt Q13946); experiment: Panlabs assay PDE7A; parameters: compound concentration 10 uM; conditions: at 10 µM
[3] = biological target: 3',5'-cyclic-AMP phosphodiesterase 7B (Homo sapiens, UniProt Q9NP56); experiment: Panlabs assay PDE7B; parameters: compound concentration 10 uM; conditions: at 10 µM
[4] = biological target: High affinity cGMP-specific 3',5'-cyclic phosphodiesterase 9A (Homo sapiens, UniProt O76083); experiment: Panlabs assay PDE9A2; parameters: compound concentration 10 uM
[5] = biological target: High affinity cAMP-specific and IBMX-insensitive 3',5'-cyclic phosphodiesterase 8A (Homo sapiens, UniProt O60658); experiment: Panlabs assay PDE8A1; parameters: compound concentration 10 uM; conditions: at 10 µM
[6] = biological target: T1, 3',5'-cyclic-AMP phosphodiesterase 4B (Homo sapiens, UniProt Q07343); experiment: Panlabs assay PDE4B1; parameters: compound concentration 10 uM; conditions: at 10 µM
[7] = biological target: cAMP and cAMP-inhibited cGMP 3',5'-cyclic phosphodiesterase 10A (Homo sapiens, UniProt Q9Y233); experiment: Panlabs assay PDE10A2; parameters: compound concentration 10 uM; conditions: at 10 µM
[8] = biological target: 3',5'-cyclic-AMP phosphodiesterase 4D (Homo sapiens) (UniProt Q08499); experiment: Panlabs assay PDE4D2; parameters: compound concentration 10 uM; conditions: at 10 µM
[9] = biological target: cGMP-inhibited 3',5'-cyclic phosphodiesterase 3A (Homo sapiens) (UniProt Q14432); experiment: Panlabs assay PDE3A; parameters: compound concentration 10 uM; conditions: at 10 µM
[10] = biological target: 3',5'-cyclic-AMP phosphodiesterase 4C (Homo sapiens) (UniProt Q08493); experiment: Panlabs assay PDE4C1; parameters: compound concentration 10 uM; conditions: at 10 µM
[11] = biological target: Beta-2 adrenergic receptor (Homo sapiens) (UniProt P07550); experiment: Adrenergic beta2 Eurofins Panlabs panel; conditions: Compound concentration 10.0 uM
[12] = biological target: Purinergic P2Y (Rattus norvegicus) (UniProt O35811+Q9EPX4+P49651+Q63371+P41232+O35881+Q6GUG4); experiment: Purinergic P2Y Eurofins Panlabs panel; assay type: protein assay; conditions: Compound concentration 10.0 uM
[13] = biological target: Adenosine receptor A3 (Homo sapiens) (UniProt P0DMS8); experiment: Adenosine A3 Eurofins Panlabs panel; conditions: Compound concentration 10.0 uM
[14] = biological target: Alpha-1B adrenergic receptor (Homo sapiens) (UniProt P35368); conditions: Compound concentration 10.0 uM
[15] = biological target: Androgen receptor (Homo sapiens) (UniProt P10275); experiment: Androgen (Testosterone) Eurofins Panlabs panel; conditions: Compound concentration 10.0 uM
[16] = biological target: D(1A) dopamine receptor (Homo sapiens) (UniProt P21728); experiment: Dopamine D1 Eurofins Panlabs panel; conditions: Compound concentration 10.0 uM
[17] = biological target: Monoamine oxidase B (MAO-B) (Homo sapiens, UniProt P27338); experiment: Monoamine Oxidase MAO-B Eurofins Panlabs panel; conditions: compound concentration 10 uM
[18] = biological target: Phosphodiesterase 4 (Homo sapiens) (UniProt P27815+Q08499+Q07343+Q08493); experiment: Phosphodiesterase PDE4 Eurofins Panlabs panel; assay type: protein assay; conditions: Compound concentration 10.0 uM
[19] = biological target: Prostaglandin G/H synthase 1 (Homo sapiens) (UniProt P23219); experiment: Cyclooxygenase COX-1 Eurofins Panlabs panel; conditions: Compound concentration 10.0 uM
[20] = biological target: Sodium-dependent noradrenaline transporter (Homo sapiens) (UniProt P23975); experiment: Transporter, Norepinephrine (NET) Eurofins Panlabs panel; conditions: Compound concentration 10.0 uM
[21] = biological target: Sigma non-opioid intracellular receptor 1 (Homo sapiens) (UniProt Q99720); experiment: Sigma1 Eurofins Panlabs panel; conditions: Compound concentration 10.0 uM
[22] = biological target: Sodium/potassium-transporting ATPase (Sus scrofa) (UniProt P05027+P05024+D2WKD8+D2WKD7+F1ST41); experiment: ATPase, Na+/K+, Heart, Pig Eurofins Panlabs panel; assay type: protein-complex assay; conditions: Compound concentration 10.0 uM
[23] = biological target: Histamine H2 receptor (Homo sapiens) (UniProt P25021); experiment: Histamine H2 Eurofins Panlabs panel; conditions: Compound concentration 10.0 uM
[24] = biological target: T2, 5-hydroxytryptamine receptor 1A (Homo sapiens) (UniProt P08908); experiment: Serotonin (5-Hydroxytryptamine) 5-HT1A Eurofins Panlabs panel; conditions: Compound concentration 10.0 uM
T2 sequence (whole entry): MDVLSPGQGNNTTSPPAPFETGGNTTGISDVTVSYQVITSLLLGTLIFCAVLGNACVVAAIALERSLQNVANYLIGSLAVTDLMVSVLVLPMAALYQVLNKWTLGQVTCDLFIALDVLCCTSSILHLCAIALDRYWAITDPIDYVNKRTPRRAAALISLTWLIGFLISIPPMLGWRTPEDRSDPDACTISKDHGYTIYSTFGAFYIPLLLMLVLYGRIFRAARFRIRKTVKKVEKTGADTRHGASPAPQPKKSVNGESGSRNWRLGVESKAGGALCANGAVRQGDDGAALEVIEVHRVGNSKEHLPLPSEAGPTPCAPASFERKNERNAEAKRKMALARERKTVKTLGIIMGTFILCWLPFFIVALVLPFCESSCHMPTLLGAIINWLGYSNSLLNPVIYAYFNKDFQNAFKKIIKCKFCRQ

[25] = biological target: Glutamate receptor ionotropic, AMPA (Rattus norvegicus) (UniProt P19491+P19492+P19493+P19490); experiment: Glutamate, AMPA Eurofins Panlabs panel; assay type: protein-complex assay; conditions: Compound concentration 10.0 uM
[26] = biological target: T1, 3',5'-cyclic-AMP phosphodiesterase 4B; experiment: 3H-cAMP and 3H-cGMP Scintillation Proximity Assay (PDE4B)
[27] = biological target: L-type calcium channel, dihydropyridine site (Rattus norvegicus, UniProt P22002+P27732+Q02485); experiment: Calcium Channel L-Type, Dihydropyridine Eurofins Panlabs panel; assay type: protein assay; conditions: compound concentration 10 uM
[28] = biological target: Histamine H1 receptor (Homo sapiens) (UniProt P35367); experiment: Histamine H1 Eurofins Panlabs panel; conditions: Compound concentration 10.0 uM
[29] = biological target: Endothelin receptor type B (Homo sapiens) (UniProt P24530); experiment: Endothelin ETB Eurofins Panlabs panel; conditions: Compound concentration 10.0 uM
[30] = biological target: Prostaglandin E2 receptor EP1 subtype (Homo sapiens) (UniProt P34995); experiment: Prostanoid EP1 Eurofins Panlabs panel; conditions: Compound concentration 10.0 uM
[31] = biological target: Cannabinoid receptor 1 (Homo sapiens) (UniProt P21554); experiment: Cannabinoid CB1 Eurofins Panlabs panel; conditions: Compound concentration 10.0 uM
[32] = biological target: B2 bradykinin receptor (Homo sapiens) (UniProt P30411); experiment: Bradykinin B2 Eurofins Panlabs panel; conditions: Compound concentration 10.0 uM
[33] = biological target: Muscarinic acetylcholine receptor M3 (Homo sapiens) (UniProt P20309); experiment: Muscarinic M3 Eurofins Panlabs panel; conditions: Compound concentration 10.0 uM
[34] = biological target: Substance-P receptor (Homo sapiens) (UniProt P25103); experiment: Tachykinin NK1 Eurofins Panlabs panel; conditions: Compound concentration 10.0 uM
Phosphodiesterase 6 = experiment: 3H-cAMP and 3H-cGMP Scintillation Proximity Assay (PDE6); assay type: tissue-based, Bos taurus, retina

Sequence of Alpha-1B adrenergic receptor (Homo sapiens) (P35368 whole entry): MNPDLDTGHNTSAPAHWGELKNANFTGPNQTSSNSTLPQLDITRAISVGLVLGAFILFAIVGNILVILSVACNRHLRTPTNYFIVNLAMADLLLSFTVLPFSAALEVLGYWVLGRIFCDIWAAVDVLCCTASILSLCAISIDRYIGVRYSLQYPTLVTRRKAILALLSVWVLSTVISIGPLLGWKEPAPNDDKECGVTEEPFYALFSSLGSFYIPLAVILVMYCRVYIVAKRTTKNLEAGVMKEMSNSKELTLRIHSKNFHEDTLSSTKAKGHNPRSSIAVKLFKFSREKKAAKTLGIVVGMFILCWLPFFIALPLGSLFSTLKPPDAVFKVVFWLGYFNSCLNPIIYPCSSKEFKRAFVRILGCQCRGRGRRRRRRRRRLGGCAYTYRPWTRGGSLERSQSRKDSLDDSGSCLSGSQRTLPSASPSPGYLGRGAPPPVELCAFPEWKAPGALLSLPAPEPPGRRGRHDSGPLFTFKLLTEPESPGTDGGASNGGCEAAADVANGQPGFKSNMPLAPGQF
T1 sequence (Q07343 whole entry): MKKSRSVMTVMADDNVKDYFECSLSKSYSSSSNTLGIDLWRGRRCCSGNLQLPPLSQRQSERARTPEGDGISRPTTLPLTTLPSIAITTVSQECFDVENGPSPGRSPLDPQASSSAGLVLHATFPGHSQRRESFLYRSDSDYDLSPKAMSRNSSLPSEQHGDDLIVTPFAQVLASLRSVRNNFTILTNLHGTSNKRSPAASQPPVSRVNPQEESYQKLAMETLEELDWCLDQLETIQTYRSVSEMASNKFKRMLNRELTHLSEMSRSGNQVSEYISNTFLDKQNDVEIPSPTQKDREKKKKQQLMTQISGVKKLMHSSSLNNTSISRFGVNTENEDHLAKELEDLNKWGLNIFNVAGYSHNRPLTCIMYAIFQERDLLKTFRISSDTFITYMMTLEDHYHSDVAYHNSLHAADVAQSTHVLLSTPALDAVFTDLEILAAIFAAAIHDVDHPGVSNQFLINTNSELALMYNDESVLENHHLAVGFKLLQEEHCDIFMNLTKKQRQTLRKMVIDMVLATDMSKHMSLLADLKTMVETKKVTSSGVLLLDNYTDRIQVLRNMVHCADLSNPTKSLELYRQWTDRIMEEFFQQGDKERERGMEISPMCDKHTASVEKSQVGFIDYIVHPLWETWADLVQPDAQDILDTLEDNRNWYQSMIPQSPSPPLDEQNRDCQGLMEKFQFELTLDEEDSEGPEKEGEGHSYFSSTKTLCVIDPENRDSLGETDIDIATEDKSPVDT
Sequence of Substance-P receptor (Homo sapiens) (P25103 whole entry): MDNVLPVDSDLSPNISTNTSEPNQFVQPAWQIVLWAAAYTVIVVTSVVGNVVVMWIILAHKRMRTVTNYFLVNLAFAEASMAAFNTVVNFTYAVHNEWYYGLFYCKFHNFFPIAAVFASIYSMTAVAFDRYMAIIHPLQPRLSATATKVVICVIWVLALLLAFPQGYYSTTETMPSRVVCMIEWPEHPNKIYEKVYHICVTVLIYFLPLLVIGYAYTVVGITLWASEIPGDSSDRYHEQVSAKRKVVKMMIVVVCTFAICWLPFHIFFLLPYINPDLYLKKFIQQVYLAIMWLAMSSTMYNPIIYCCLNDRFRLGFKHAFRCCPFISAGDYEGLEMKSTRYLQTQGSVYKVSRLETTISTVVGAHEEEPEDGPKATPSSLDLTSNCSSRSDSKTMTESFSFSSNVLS
Sequence of Histamine H1 receptor (Homo sapiens) (P35367 whole entry): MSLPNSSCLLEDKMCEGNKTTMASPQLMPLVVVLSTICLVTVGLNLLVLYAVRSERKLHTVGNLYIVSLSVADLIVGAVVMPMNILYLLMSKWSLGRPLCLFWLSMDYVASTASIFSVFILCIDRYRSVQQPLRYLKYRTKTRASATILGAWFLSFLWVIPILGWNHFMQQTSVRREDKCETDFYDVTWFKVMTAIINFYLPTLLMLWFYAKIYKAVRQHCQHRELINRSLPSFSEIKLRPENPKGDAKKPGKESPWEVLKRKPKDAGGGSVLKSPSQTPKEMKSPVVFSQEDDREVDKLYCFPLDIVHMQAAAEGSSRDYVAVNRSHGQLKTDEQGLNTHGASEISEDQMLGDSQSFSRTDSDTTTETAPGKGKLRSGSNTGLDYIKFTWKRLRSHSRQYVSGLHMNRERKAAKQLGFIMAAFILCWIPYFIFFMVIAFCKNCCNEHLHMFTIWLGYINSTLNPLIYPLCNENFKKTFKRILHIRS
Sequence of Histamine H2 receptor (Homo sapiens) (P25021 whole entry): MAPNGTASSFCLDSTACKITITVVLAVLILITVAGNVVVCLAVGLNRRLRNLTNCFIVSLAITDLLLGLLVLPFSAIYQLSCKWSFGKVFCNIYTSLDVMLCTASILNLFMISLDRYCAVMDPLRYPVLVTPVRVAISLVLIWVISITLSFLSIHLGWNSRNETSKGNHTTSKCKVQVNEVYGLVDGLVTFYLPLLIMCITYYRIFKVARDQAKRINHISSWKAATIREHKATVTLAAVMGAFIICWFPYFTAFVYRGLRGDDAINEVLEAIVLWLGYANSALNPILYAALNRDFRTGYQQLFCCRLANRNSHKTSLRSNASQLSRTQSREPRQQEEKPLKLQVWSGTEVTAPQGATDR
Sequence of Endothelin receptor type B (Homo sapiens) (P24530 whole entry): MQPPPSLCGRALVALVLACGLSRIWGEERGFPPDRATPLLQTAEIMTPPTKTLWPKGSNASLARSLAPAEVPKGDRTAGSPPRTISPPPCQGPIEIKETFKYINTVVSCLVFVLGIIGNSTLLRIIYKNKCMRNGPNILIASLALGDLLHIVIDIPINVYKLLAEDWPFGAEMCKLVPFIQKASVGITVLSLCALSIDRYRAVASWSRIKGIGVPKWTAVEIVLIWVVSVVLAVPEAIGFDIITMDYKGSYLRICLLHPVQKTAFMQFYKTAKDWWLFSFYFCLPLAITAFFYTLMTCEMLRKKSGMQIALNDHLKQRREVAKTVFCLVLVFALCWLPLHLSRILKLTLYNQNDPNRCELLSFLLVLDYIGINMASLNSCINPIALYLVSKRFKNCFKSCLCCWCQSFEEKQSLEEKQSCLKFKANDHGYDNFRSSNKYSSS
Sequence of Sodium-dependent noradrenaline transporter (Homo sapiens) (P23975 whole entry): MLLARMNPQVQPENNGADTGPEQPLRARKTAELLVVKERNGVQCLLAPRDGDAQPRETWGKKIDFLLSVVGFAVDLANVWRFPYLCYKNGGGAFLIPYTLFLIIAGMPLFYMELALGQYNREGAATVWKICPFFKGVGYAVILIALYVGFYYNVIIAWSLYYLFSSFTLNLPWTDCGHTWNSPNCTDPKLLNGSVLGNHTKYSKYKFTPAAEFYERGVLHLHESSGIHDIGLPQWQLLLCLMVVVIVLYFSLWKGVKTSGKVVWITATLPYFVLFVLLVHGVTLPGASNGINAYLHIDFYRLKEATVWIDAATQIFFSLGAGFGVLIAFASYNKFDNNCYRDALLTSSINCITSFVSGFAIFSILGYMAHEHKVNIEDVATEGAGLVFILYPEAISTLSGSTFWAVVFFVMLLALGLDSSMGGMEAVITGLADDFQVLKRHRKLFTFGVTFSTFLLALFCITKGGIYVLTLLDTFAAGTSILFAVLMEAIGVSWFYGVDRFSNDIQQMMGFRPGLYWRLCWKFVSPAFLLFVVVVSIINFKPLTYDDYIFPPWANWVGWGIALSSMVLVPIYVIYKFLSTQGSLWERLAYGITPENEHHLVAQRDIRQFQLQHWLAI
Sequence of Adenosine receptor A3 (Homo sapiens) (P0DMS8 whole entry): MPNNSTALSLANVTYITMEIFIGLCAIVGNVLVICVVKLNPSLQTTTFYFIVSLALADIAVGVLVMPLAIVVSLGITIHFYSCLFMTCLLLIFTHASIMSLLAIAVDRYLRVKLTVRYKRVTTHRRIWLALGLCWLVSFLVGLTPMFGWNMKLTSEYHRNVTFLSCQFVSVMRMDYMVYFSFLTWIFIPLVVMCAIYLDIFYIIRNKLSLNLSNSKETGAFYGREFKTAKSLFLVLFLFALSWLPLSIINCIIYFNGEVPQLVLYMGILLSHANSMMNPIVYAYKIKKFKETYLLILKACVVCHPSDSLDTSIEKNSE
Sequence of 3',5'-cyclic-AMP phosphodiesterase 4D (Homo sapiens) (Q08499 whole entry): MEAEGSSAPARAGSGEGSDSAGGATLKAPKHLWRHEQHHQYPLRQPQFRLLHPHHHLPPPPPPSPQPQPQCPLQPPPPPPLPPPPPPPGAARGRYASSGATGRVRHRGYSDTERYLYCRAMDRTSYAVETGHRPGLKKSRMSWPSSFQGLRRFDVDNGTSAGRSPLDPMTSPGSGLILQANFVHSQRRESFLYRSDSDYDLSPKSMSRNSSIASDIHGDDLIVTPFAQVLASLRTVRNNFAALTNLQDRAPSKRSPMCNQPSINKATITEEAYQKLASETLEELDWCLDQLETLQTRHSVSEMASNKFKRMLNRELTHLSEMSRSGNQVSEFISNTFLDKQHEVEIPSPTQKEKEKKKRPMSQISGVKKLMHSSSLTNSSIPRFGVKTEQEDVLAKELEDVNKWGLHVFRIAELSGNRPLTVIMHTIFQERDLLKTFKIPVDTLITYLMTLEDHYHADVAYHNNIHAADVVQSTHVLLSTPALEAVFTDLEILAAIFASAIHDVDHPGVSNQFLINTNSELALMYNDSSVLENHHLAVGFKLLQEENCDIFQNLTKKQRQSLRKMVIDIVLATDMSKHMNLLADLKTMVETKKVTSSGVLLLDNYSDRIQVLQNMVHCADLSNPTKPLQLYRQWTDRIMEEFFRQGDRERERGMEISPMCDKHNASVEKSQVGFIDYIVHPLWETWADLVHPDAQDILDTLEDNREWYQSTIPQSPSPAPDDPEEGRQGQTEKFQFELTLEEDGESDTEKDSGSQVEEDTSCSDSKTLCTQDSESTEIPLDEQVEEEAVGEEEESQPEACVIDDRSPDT
Sequence of Sigma non-opioid intracellular receptor 1 (Homo sapiens) (Q99720 whole entry): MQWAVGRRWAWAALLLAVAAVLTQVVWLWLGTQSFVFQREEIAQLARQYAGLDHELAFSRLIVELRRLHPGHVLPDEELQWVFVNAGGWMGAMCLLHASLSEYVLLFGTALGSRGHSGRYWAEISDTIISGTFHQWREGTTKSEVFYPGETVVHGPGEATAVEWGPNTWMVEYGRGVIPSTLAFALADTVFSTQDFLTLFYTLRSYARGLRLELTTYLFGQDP

## CCC[C@@H]1CNCc2c1[nH]c(=O)c(C#N)c2N1CCC2(CC1)CC2
[1]
  inhibition: 0.8%
[2]
  inhibition: -1.6%
[3]
  inhibition: -2.1%
[4]
  IC50: 7.47 µM (not active)
[5]
  inhibition: 2.9%
[6]
  inhibition: 10.6%
[7]
  inhibition: 1.6%
[8]
  inhibition: 19.1%
[9]
  inhibition: -1.3%
[10]
  inhibition: 28.6%

## CCC[C@H]1CNCc2c1[nH]c(=O)c(C#N)c2N1CCC2(CC1)CC2
[11]
  inhibition: -6%
[12]
  inhibition: 5%
[13]
  inhibition: 12.5%
[14]
  inhibition: 4.43%
[15]
  inhibition: -6%
[16]
  inhibition: 1%
[17]
  inhibition at 10 µM: 2%
[18]
  inhibition: 58%
[19]
  inhibition: 1%
[20]
  inhibition: 6%
[21]
  inhibition: -4%
[22]
  inhibition: -1%
[23]
  inhibition: 3%
[24]
  inhibition: 10%
[25]
  inhibition: -2%
[26]
  IC50: 3.96 µM (not active)
[27]
  inhibition at 10 µM: 29%
[28]
  inhibition: 5%
[29]
  inhibition: 8%
[30]
  inhibition: 8%
[31]
  inhibition: 31.2%
[32]
  inhibition: -4%
[33]
  inhibition: -9%
[34]
  inhibition: -7%
Phosphodiesterase 6
  IC50: 1.56 µM
